The results in this text go back to US20120329787A1, “FUNGICIDAL PYRANONES AND OXAZINONES” (E.I. DU PONT DE NEMOURS AND COMPANY, priority 2011, published 2012).

Marks after values point to notes of the source that are not given here.

Common to all, as to assay type: in vivo
Test [1] deals with Puccinia recondita f. sp. tritici. The experiment in a line: Test G: wheat leaf rust, spray on wheat seedlings after inoculation (curative). As to conditions: 200 ppm test suspension, sprayed after inoculation; for pest or weed control at 200 ppm: Puccinia recondita, 96 h, read-out: Test G rating (100 = 100% disease control, 0 = no disease control). An excerpt: General protocol for preparing test suspensions for Tests A-I: the test compounds were first dissolved in acetone in an amount equal to 3% of the final volume and then suspended at the desired concentration (in ppm) in acetone and purified water (50/50 mix by volume) containing 250 ppm of the surfactant Trem® 014 (polyhydric alcohol esters). The resulting test suspensions were then used in Tests A-I. Spraying a 200 ppm test suspension to the point of run-off on the test plants was the equivalent of a rate of 500 g/ha. […] (An asterisk “*” next to the rating value indicates a 40 ppm test suspension was used.) Wheat seedlings were inoculated with a spore suspension of Puccinia recondita f. sp. tritici (the causal agent of wheat leaf rust) and incubated in a saturated atmosphere at 20° C. for 24 h, and then moved to a growth chamber at 20° C. for 2 days. At the end of this time, the test suspension was sprayed to the point of run-off, and then the seedlings were moved to a growth chamber at 20° C. for 4 days after which time visual disease ratings were made. […] A dash (-) indicates no test results. All results are for 200 ppm except where followed by an asterisk “*”, which indicates a 40 ppm.

The test system of test [2] is Alternaria solani. Description: Test B: tomato early blight, spray on tomato seedlings the day before inoculation. As to conditions: 200 ppm test suspension; for pest or weed control at 200 ppm: Alternaria solani, 168 h, read-out: Test B rating (100 = 100% disease control, 0 = no disease control). An excerpt: General protocol for preparing test suspensions for Tests A-I: the test compounds were first dissolved in acetone in an amount equal to 3% of the final volume and then suspended at the desired concentration (in ppm) in acetone and purified water (50/50 mix by volume) containing 250 ppm of the surfactant Trem® 014 (polyhydric alcohol esters). The resulting test suspensions were then used in Tests A-I. Spraying a 200 ppm test suspension to the point of run-off on the test plants was the equivalent of a rate of 500 g/ha. […] (An asterisk “*” next to the rating value indicates a 40 ppm test suspension was used.) The test suspension was sprayed to the point of run-off on tomato seedlings. The following day, the seedlings were inoculated with a spore suspension of Alternaria solani (the causal agent of tomato early blight) and incubated in a saturated atmosphere at 27° C. for 48 h, and then moved to a growth chamber at 20° C. for 5 days, after which time visual disease ratings were made. […] A dash (-) indicates no test results. All results are for 200 ppm except where followed by an asterisk “*”, which indicates a 40 ppm.

Test [3] deals with Septoria nodorum. Description: Test E: Septoria glume blotch, spray on wheat seedlings the day before inoculation. The following applies: 200 ppm test suspension; for pest or weed control at 200 ppm: Parastagonospora nodorum, 264 h, read-out: Test E rating (100 = 100% disease control, 0 = no disease control). An excerpt:
General protocol for preparing test suspensions for Tests A-I: the test compounds were first dissolved in acetone in an amount equal to 3% of the final volume and then suspended at the desired concentration (in ppm) in acetone and purified water (50/50 mix by volume) containing 250 ppm of the surfactant Trem® 014 (polyhydric alcohol esters). The resulting test suspensions were then used in Tests A-I. Spraying a 200 ppm test suspension to the point of run-off on the test plants was the equivalent of a rate of 500 g/ha. […] (An asterisk “*” next to the rating value indicates a 40 ppm test suspension was used.) The test suspension was sprayed to the point of run-off on wheat seedlings. […] A dash (-) indicates no test results. All results are for 200 ppm except where followed by an asterisk “*”, which indicates a 40 ppm.

Test [4] concerns Botrytis cinerea. Description: Test A: tomato Botrytis, spray on tomato seedlings the day before inoculation. As to conditions: 200 ppm test suspension; for pest or weed control at 200 ppm: Botrytis cinerea, 120 h, read-out: Test A rating (100 = 100% disease control, 0 = no disease control). An excerpt: General protocol for preparing test suspensions for Tests A-I: the test compounds were first dissolved in acetone in an amount equal to 3% of the final volume and then suspended at the desired concentration (in ppm) in acetone and purified water (50/50 mix by volume) containing 250 ppm of the surfactant Trem® 014 (polyhydric alcohol esters). The resulting test suspensions were then used in Tests A-I. Spraying a 200 ppm test suspension to the point of run-off on the test plants was the equivalent of a rate of 500 g/ha. […] (An asterisk “*” next to the rating value indicates a 40 ppm test suspension was used.) The test suspension was sprayed to the point of run-off on tomato seedlings. The following day, the seedlings were inoculated with a spore suspension of Botrytis cinerea (the causal agent of tomato Botrytis) and incubated in a saturated atmosphere at 20° C. for 48 h, and then moved to a growth chamber at 24° C. for 3 additional days, after which time visual disease ratings were made. […] A dash (-) indicates no test results. All results are for 200 ppm except where followed by an asterisk “*”, which indicates a 40 ppm.

In test [5] the test system is Puccinia recondita f. sp. tritici. Description: Test H: wheat leaf rust, spray on wheat seedlings the day before inoculation. As to conditions: 200 ppm test suspension, sprayed before inoculation; for pest or weed control at 200 ppm: Puccinia recondita, 168 h, read-out: Test H rating (100 = 100% disease control, 0 = no disease control). An excerpt: General protocol for preparing test suspensions for Tests A-I: the test compounds were first dissolved in acetone in an amount equal to 3% of the final volume and then suspended at the desired concentration (in ppm) in acetone and purified water (50/50 mix by volume) containing 250 ppm of the surfactant Trem® 014 (polyhydric alcohol esters). The resulting test suspensions were then used in Tests A-I. Spraying a 200 ppm test suspension to the point of run-off on the test plants was the equivalent of a rate of 500 g/ha. […] (An asterisk “*” next to the rating value indicates a 40 ppm test suspension was used.) The test suspension was sprayed to the point of run-off on wheat seedlings. The following day, the seedlings were inoculated with a spore suspension of Puccinia recondita f. sp. tritici (the causal agent of wheat leaf rust) and incubated in a saturated atmosphere at 20° C. for 24 h, and then moved to a growth chamber at 20° C. for 6 days, after which time visual disease ratings were made Results for Tests A-I are given in Table A. […] A dash (-) indicates no test results. All results are for 200 ppm except where followed by an asterisk “*”, which indicates a 40 ppm.

Test [6] has as its system Septoria tritici. Description: Test F: wheat leaf blotch, spray on wheat seedlings the day before inoculation. As to conditions: for pest or weed control at 200 ppm: Zymoseptoria tritici, 504 h, read-out: Test F rating (100 = 100% disease control, 0 = no disease control). An excerpt: General protocol for preparing test suspensions for Tests A-I: the test compounds were first dissolved in acetone in an amount equal to 3% of the final volume and then suspended at the desired concentration (in ppm) in acetone and purified water (50/50 mix by volume) containing 250 ppm of the surfactant Trem® 014 (polyhydric alcohol esters). The resulting test suspensions were then used in Tests A-I. Spraying a 200 ppm test suspension to the point of run-off on the test plants was the equivalent of a rate of 500 g/ha. […] (An asterisk “*” next to the rating value indicates a 40 ppm test suspension was used.) The test suspension was sprayed to the point of run-off on wheat seedlings. The following day, the seedlings were inoculated with a spore suspension of Septoria tritici (the causal agent of wheat leaf blotch) and incubated in a saturated atmosphere at 24° C. for 48 h, and then the seedlings were moved to a growth chamber at 20° C. for 19 additional days, after which time visual disease ratings were made. […] A dash (-) indicates no test results. All results are for 200 ppm except where followed by an asterisk “*”, which indicates a 40 ppm.

The subject of test [7] is Erysiphe graminis f. sp. tritici. Description: Test I: wheat powdery mildew, spray on wheat seedlings the day before inoculation. The following applies: 200 ppm test suspension; for pest or weed control at 200 ppm: Blumeria graminis, 168 h, read-out: Test I rating (100 = 100% disease control, 0 = no disease control). An excerpt:
General protocol for preparing test suspensions for Tests A-I: the test compounds were first dissolved in acetone in an amount equal to 3% of the final volume and then suspended at the desired concentration (in ppm) in acetone and purified water (50/50 mix by volume) containing 250 ppm of the surfactant Trem® 014 (polyhydric alcohol esters). The resulting test suspensions were then used in Tests A-I. Spraying a 200 ppm test suspension to the point of run-off on the test plants was the equivalent of a rate of 500 g/ha. […] (An asterisk “*” next to the rating value indicates a 40 ppm test suspension was used.) The test suspension was sprayed to the point of run-off on wheat seedlings. The following day, the seedlings were inoculated with a spore dust of Erysiphe graminis f. sp. tritici, (the causal agent of wheat powdery mildew) and incubated in a growth chamber at 20° C. for 7 days, after which time visual disease ratings were made. […] A dash (-) indicates no test results. All results are for 200 ppm except where followed by an asterisk “*”, which indicates a 40 ppm.

For the compound “4-(2-chloro-3,5-dimethoxyphenyl)-3,6-dimethyl-5-(2,4,6-trifluorophenyl)-2H-pyran-2-one [Compound 58]”, the “Test G rating (100 = 100% disease control, 0 = no disease control)” value in test [1] turned out to be 100%. Besides, the “Test B rating (100 = 100% disease control, 0 = no disease control)” value in test [2] is given as 100%. Also, in test [3], the “Test E rating (100 = 100% disease control, 0 = no disease control)” value amounted to 100%. In test [4], the “Test A rating (100 = 100% disease control, 0 = no disease control)” value came to 100%. The “Test H rating (100 = 100% disease control, 0 = no disease control)” value in test [5] was 100%. The “Test F rating (100 = 100% disease control, 0 = no disease control)” value in test [6] (40 ppm test suspension (asterisk)) is 100* %. Also, the “Test I rating (100 = 100% disease control, 0 = no disease control)” value in test [7] amounted to 100%.
In the case of `COc1cc(OC)cc(-c2c(-c3ccccc3F)noc(=O)c2-c2c(F)cc(F)cc2F)c1` [Compound 23, 4-(3,5-dimethoxyphenyl)-3-(2-fluorophenyl)-5-(2,4,6-trifluorophenyl)-6H-1,2-oxazin-6-one], the pest or weed control at 200 ppm in test [1] was found to be 9%; in test [2] it was 93%; in test [3], 95%; in test [4], 100%; in test [5], 100%; in test [6] (200 ppm test suspension), 99%. Also, the pest or weed control at 200 ppm in test [7] stood at 0%.
With `COc1cc(OC)cc(-c2c(C)noc(=O)c2-c2c(F)cc(F)cc2F)c1` [Compound 24], in test [1], the “Test G rating (100 = 100% disease control, 0 = no disease control)” value is reported as 0%. Besides, the “Test B rating (100 = 100% disease control, 0 = no disease control)” value in test [2] is 63%. In addition, in test [3], the “Test E rating (100 = 100% disease control, 0 = no disease control)” value is reported as 0%. The “Test A rating (100 = 100% disease control, 0 = no disease control)” value in test [4] stood at 98%. Also, the “Test F rating (100 = 100% disease control, 0 = no disease control)” value in test [6] (200 ppm test suspension) is given as 99%. Moreover, in test [7], the “Test I rating (100 = 100% disease control, 0 = no disease control)” value was 99%.
Turning to `COc1cc(OC)c(Cl)c(-c2c(C)noc(=O)c2-c2c(F)cc(F)cc2F)c1` [Compound 25, 4-(2-chloro-3,5-dimethoxyphenyl)-3-methyl-5-(2,4,6-trifluorophenyl)-6H-1,2-oxazin-6-one], the pest or weed control at 200 ppm in test [1] turned out to be 100%; in test [2], 97%; in test [3] it was 0%; in test [4], 100%; in test [5], 100%; in test [6] (200 ppm test suspension) it was 100%. In test [7], the pest or weed control at 200 ppm was 100%.
As to `COc1cc(OC)cc(-c2c(-c3ccccc3F)c(C)oc(=O)c2-c2ccccc2)c1` [Compound 26], the “Test G rating (100 = 100% disease control, 0 = no disease control)” value in test [1] came to 9%. For the same compound, the “Test B rating (100 = 100% disease control, 0 = no disease control)” value in test [2] amounted to 93%. Also, the “Test E rating (100 = 100% disease control, 0 = no disease control)” value in test [3] was 0%. Besides, the “Test A rating (100 = 100% disease control, 0 = no disease control)” value in test [4] is given as 99%. The “Test H rating (100 = 100% disease control, 0 = no disease control)” value in test [5] is on record as 100%. Further, the “Test F rating (100 = 100% disease control, 0 = no disease control)” value in test [6] (200 ppm test suspension) came out at 95%. The “Test I rating (100 = 100% disease control, 0 = no disease control)” value in test [7] was determined as 27%.
As to `COc1cc(OC)c(Cl)c(-c2c(-c3c(F)cc(F)cc3F)c(C)oc(=O)c2C)c1Cl` [Compound 59], the “Test G rating (100 = 100% disease control, 0 = no disease control)” value in test [1] was determined as 82%. In addition, the “Test B rating (100 = 100% disease control, 0 = no disease control)” value in test [2] turned out to be 0%. Also, the “Test E rating (100 = 100% disease control, 0 = no disease control)” value in test [3] was found to be 0%. In addition, in test [4], the “Test A rating (100 = 100% disease control, 0 = no disease control)” value was 100%. The “Test H rating (100 = 100% disease control, 0 = no disease control)” value in test [5] is listed as 100%. The “Test I rating (100 = 100% disease control, 0 = no disease control)” value in test [7] amounted to 90%.
Regarding `COc1cc(OC)cc(-c2c(-c3ccccc3F)c(C)oc(=O)c2C)c1` [Compound 60], the “Test G rating (100 = 100% disease control, 0 = no disease control)” value in test [1] stood at 96%. Also, the “Test B rating (100 = 100% disease control, 0 = no disease control)” value in test [2] came out at 26%. For the same compound, the “Test E rating (100 = 100% disease control, 0 = no disease control)” value in test [3] was determined as 0%. Further, the “Test H rating (100 = 100% disease control, 0 = no disease control)” value in test [5] was determined as 100%. Moreover, the “Test F rating (100 = 100% disease control, 0 = no disease control)” value in test [6] (200 ppm test suspension) was 100%. Besides, the “Test I rating (100 = 100% disease control, 0 = no disease control)” value in test [7] stood at 98%.
